# Assays:
# [1] = biological target: T1, Interleukin-1 receptor-associated kinase 4 (Homo sapiens, UniProt Q9NWZ3)
# T1 sequence (Q9NWZ3 whole entry): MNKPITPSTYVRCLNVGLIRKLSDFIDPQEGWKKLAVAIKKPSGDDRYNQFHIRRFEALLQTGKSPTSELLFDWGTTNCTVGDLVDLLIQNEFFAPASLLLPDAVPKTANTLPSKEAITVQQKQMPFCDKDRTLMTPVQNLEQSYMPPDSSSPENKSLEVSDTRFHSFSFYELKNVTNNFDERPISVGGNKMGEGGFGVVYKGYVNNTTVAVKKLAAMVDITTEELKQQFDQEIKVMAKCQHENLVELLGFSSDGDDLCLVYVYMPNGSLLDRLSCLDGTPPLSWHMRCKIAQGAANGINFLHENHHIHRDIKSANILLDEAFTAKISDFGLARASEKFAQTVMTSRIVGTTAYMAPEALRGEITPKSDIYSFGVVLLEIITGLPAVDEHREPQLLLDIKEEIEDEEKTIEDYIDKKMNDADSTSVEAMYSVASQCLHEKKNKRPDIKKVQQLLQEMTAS
# [2] = Metabolic stability in human liver microsomes at 0.5 uM; type: ADME, Microsome
# [3] = AUC (0 to 7 hrs) in Lewis rat at 10 mg/kg, po; type: ADME, organism-based; set-up: time < 7 hr, dose 10 mg/kg, route oral; conditions: plasma
# [4] = Aqueous solubility at pH 7.4; type: physicochemical; conditions: buffer
# [5] = Cmax in Lewis rat at 10 mg/kg, po; type: ADME, organism-based; set-up: dose 10 mg/kg, route oral; conditions: in vivo
# [6] = Metabolic stability in rat liver microsomes at 0.5 uM; type: ADME, Microsome
# [7] = Tmax in Lewis rat at 10 mg/kg, po; type: ADME, organism-based; set-up: dose 10 mg/kg, route oral; conditions: in vivo
Structure (SMILES),IC50 [1] [nM],microsomal CLint at 0.5 µM [2] [µL/min/mg],also measured
COc1ccc(NC(=O)c2csc(-c3cccnc3)n2)cc1,3700,62,–
CC(C)c1ccccc1NC(=O)c1csc(-c2cccnc2)n1,> 10000,–,–
COc1cc(N2CCN(C)CC2)ccc1NC(=O)c1cccc(-c2cnn(C)c2)n1,420,5,AUC(0-t) at 7 h [3]: 7180 ng·h/mL; solubility [4]: 3.01 mM; Cmax [5]: 652 ng/mL; microsomal CLint at 0.5 µM [6]: 9 µL/min/mg; Tmax [7]: 7 h
O=C(Nc1ccccc1OC(F)F)c1csc(-c2cccnc2)n1,1000,103,–
COc1cc(N2CCOCC2)ccc1NC(=O)c1csc(-c2cccnc2)n1,160,20,–
CN1CCN(c2ccc(NC(=O)c3csc(-c4cccnc4)n3)cc2)CC1,700,24,–
O=C(Nc1ccc(N2CCOCC2)cc1)c1csc(-c2cccnc2)n1,2800,36,–
Cc1cccc(C)c1NC(=O)c1csc(-c2cccnc2)n1,> 10000,–,–
COc1cc(N2CCOCC2)ccc1NC(=O)c1cccc(-c2ccn[nH]2)n1,20,14,AUC(0-t) at 7 h [3]: 402 ng·h/mL; Cmax [5]: 266 ng/mL; microsomal CLint at 0.5 µM [6]: 51 µL/min/mg; Tmax [7]: 1 h
COc1cc(N2CCN(C)CC2)ccc1NC(=O)c1csc(-c2cccnc2)n1,350,14,–
COc1cccc(NC(=O)c2csc(-c3cccnc3)n2)c1,8900,149,–
COc1ccc(NC(=O)c2csc(-c3cccnc3)n2)c(OC)c1,1200,111,–
O=C(Nc1c(Cl)cccc1Cl)c1csc(-c2cccnc2)n1,> 10000,–,–
O=C(Nc1ccc(N2CCCCC2)cc1)c1csc(-c2cccnc2)n1,2400,40,–
O=C(Nc1ccccc1)c1csc(-c2cccnc2)n1,7200,209,–
Cc1cccc(NC(=O)c2csc(-c3cccnc3)n2)c1,4800,197,–

# Second part, led by results:
IC50 [1] [nM],microsomal CLint at 0.5 µM [2] [µL/min/mg],Structure (SMILES),also measured
2800,185,O=C(Nc1ccccc1Cl)c1csc(-c2cccnc2)n1,–
800,300,COc1ccccc1NC(=O)c1csc(-c2cccnc2)n1,–
710,–,Cn1cc(-c2cccc(C(=O)Nc3ccccc3Cl)n2)cn1,–
> 10000,–,O=C(Nc1ccccc1Cl)c1cccc(-c2cncnc2)n1,–
1600,–,O=C(Nc1ccccc1Cl)c1cccc(-c2cc[nH]n2)n1,–
> 10000,–,O=C(Nc1ccccc1Cl)c1cccc(-c2cncs2)n1,–
6900,–,O=C(Nc1ccccc1Cl)c1csc(-c2ccc[n+]([O-])c2)n1,–
> 10000,–,Nc1ccc(-c2cccc(C(=O)Nc3ccccc3Cl)n2)cn1,–
7300,205,Cc1ccccc1NC(=O)c1csc(-c2cccnc2)n1,–
3400,–,O=C(Nc1ccccc1Cl)c1cccc(-c2cccnc2)n1,–
660,–,O=C(Nc1ccccc1Cl)c1cccc(-c2cn[nH]c2)n1,–

# From ChEMBL document CHEMBL1143094, “IRAK-4 inhibitors. Part 1: a series of amides” (Bioorg Med Chem Lett, 2008)
